Assay results published in US10632122B2, “Compositions and methods for treating toxoplasmosis, cryptosporidiosis and other apicomplexan protozoan related diseases” (University of Washington, priority 2015, dated 2020).

What was measured:
[1] = Rat PK following IV and PO dosing; conditions: PO vs IV, rats
N. caninum = assay: Mice experimentally infected with N. caninum; design: species or system Balb/c mice; conditions: mouse, in vivo

Compound	bioavailability [1]	treatment of N. caninum infected mice (N. caninum)
CC(C)Cn1nc(-c2ccc3cc(OCC(C)(C)O)ccc3c2)c2c(N)ncnc21 [Example 33, 1-(6-(4-amino-1-isobutyl-1H-pyrazolo[3,4-d]pyrimidin-3-yl)naphthalen-2-yloxy)-2-methylpropan-2-ol]	essentially complete bioavailability	
CCOc1ccc2cc(-c3nn(CC4CCN(C)CC4)c4ncnc(N)c34)ccc2c1 [Compound 150]		treats infected mice and rids of N. caninum infection in brain and fetuses
